{
  "source": "patent US6998403B2",
  "about": "“Benzoindoline compounds” (Les Laboratoires Servier, priority 2003, dated 2006)",
  "key": {"5-HT2C receptors": {"target": "T1, 5-HT2C receptors (Homo sapiens, UniProt P28335)", "T1 sequence (P28335 33-458)": "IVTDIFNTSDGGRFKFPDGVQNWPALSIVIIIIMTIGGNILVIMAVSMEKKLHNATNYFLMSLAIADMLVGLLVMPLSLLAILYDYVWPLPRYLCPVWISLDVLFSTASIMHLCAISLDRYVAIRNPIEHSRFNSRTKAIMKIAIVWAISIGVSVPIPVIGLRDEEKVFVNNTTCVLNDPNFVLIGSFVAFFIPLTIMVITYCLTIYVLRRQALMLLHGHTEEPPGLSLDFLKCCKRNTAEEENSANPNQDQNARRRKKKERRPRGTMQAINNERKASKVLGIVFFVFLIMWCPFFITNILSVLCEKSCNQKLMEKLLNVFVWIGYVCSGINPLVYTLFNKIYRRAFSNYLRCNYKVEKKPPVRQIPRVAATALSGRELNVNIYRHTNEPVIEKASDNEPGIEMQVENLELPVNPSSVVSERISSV", "test": "Determination of the affinity for 5-HT2C receptors (competition with [3H]-mesulergine)", "format": "binding", "details": "22° C., pH=7.7, IC50 converted into pKi", "experimental": "The non-specific fraction is defined in the presence of 1 μM mianserin, the latter also being the reference product for each experiment. At the end of the incubation period, the medium is filtered through GF/B-Unifilter filters pre-treated with PEI (0.1%), followed by washing three times with the incubation buffer. The radioactivity retained on the filters is determined by liquid scintillation counting. The binding isotherms are analysed by non-linear regression in order to determine the IC50 values. They are converted into pKi (where Ki is the dissociation constant)."}, "[1]": {"system": "extracellular concentrations of NA, DA and ACh in the frontal cortex", "test": "Measurement of neurotransmitters in the frontal cortex of rats (microdialysis, HPLC)", "format": "in vivo, rat", "details": "10.0 mg/kg s.c.; for ACh, percentage area beneath the curve (%AbC ± S.E.M.): acetylcholine in frontal cortex dialysates of conscious rats; for ACh, percentage area beneath the curve (%AbC ± S.E.M.) / DA, percentage area beneath the curve (%AbC ± S.E.M.) / NA, percentage area beneath the curve (%AbC ± S.E.M.): 20 min. to 120 min. after administration; for DA, percentage area beneath the curve (%AbC ± S.E.M.): dopamine in frontal cortex dialysates of conscious rats; for change in extracellular concentration of ACh (in words) / change in extracellular concentration of DA (in words) / change in extracellular concentration of NA (in words): frontal cortex dialysates of conscious rats; for NA, percentage area beneath the curve (%AbC ± S.E.M.): noradrenaline in frontal cortex dialysates of conscious rats", "experimental": "Measurement of Neurotransmitters in the Frontal Cortex of Rats\nThe surgery is performed under pentobarbital-induced anaesthesia (60 mg/kg, i.p.). Male Wistar rats, 200–220 g (Iffa Credo, Arbresle, France), are placed in a Kopf stereotaxic device and a cannula guide (CMAMicrodialyse AB, Stockholm, Sweden) is implanted in the frontal cortex at the coordinates (in mm): anteroposterior: +2.2, lateral: ±0.6, ventral deviation: −0.2. The rats are placed in separate cages and recover from the anaesthesia over 5 days. On the day of the dialysis, a Cuprophan CMA/11 probe (length: 4 mm; ext. dia.: 0.24 mm) is introduced into the guide and perfused at 1 μl/min. with a solution of NaCl: 147.2 mM; KCl: 4 mM; CaCl2: 2.3 mM adjusted to pH 7.3 with a phosphate buffer. Two hours after implantation, samples of dialysate are collected every 20 minutes for 4 hours. Three baseline samples are collected before administration of the drug.\nNoradrenaline (NA) and dopamine (DA) are measured as follows: 20 μl of dialysate sample are diluted with 20 μl of mobile phase (NaH2PO4: 75 mM, EDTA: 20 μM, sodium decanesulphonate: 1 mM, methanol: 17.5%, triethylamine: 0.01%, pH: 5.70) and 33 μl are analysed by HPLC using, for separation, an inverse-phase column (Hypersil C 18, 150×4.6 mm; particle size 5 μm) thermostatically controlled at 43° C. and, for quantification, a coulometric detector (ESA5014, Coulochem II, ESA, Chelmsford, USA). The potential of the first electrode is −90 mV (reduction) and that of the second +280 mV (oxidation). The mobile phase flow rate is 2 ml/min. The sensitivity limit for NA and DA is 0.2 pg.\nAcetylcholine (ACh) is measured and quantified in the absence of acetylcholine esterase (AChE) inhibitor 20 μl of dialysate sample are collected in 10 μl of 0.01% acetic acid. 20 μl aliquots are analysed by HPLC. The mobile phase is composed of Na2HPO4: 50 mM and ProClin: 0.5% (BAS, Congleton, UK), pH 8.2. The stationary phase is composed of a cation-exchange column (Sepstik, 530×1.0 mm, particle size 10 μm, BAS), a pre-column (choline oxidase/catalase enzymatic reactor, 55×1 mm, BAS) and a post-column (choline oxidase/AChE enzymatic reactor, 50×1 mm, BAS). The system is maintained at 35° C. Quantification is carried out by means of an amperometric detector (LC-4B, BAS). A layer of peroxidase-redox polymer is deposited on the vitreous carbon working electrode (MF2098, BAS). The potential of that electrode is +100 mV relative to the Ag/AgCl reference electrode. The mobile phase flow rate is 0.14 ml/min. The sensitivity limit for ACh is 0.1 pg.\nThe levels of NA, DA and ACh are expressed as the percentage area beneath the curve (% AbC) ±S.E.M. of times 20 min. to 120 min. after administration of the drug. The effects of the compound of Example 1 are compared (ANOVA) with those obtained in animals treated with the solvent or with 6-chloro-5-fluoro-N-[4-methoxy-3-(4-methyl-1-piperazinyl)phenyl]-1-indoline-carboxamide."}},
  "note": "Marks after values point to notes of the source that are not given here.",
  "data": [
    {"molecule": "COc1ccc(NC(=O)N2CCc3c2ccc2ccccc32)cc1N1CCN(C)CC1.Cl", "note": "[Example 1, N-[4-Methoxy-3-(4-methyl-1-piperazinyl)phenyl]-1,2-dihydro-3H-benzo[e]indole-3-carboxamide Hydrochloride]", "values": [
      {"measurement": "Ki", "setting": "5-HT2C receptors", "value": 6.31, "unit": "nM"},
      {"measurement": "ACh, percentage area beneath the curve (%AbC ± S.E.M.)", "setting": "[1]", "value": "+107.7 ± 13.5^a,b %AbC"},
      {"measurement": "DA, percentage area beneath the curve (%AbC ± S.E.M.)", "setting": "[1]", "value": "+52.9 ± 6.6^a %AbC"},
      {"measurement": "change in extracellular concentration of ACh (in words)", "setting": "[1]", "value": "substantial increase"},
      {"measurement": "change in extracellular concentration of DA (in words)", "setting": "[1]", "value": "substantial increase"},
      {"measurement": "change in extracellular concentration of NA (in words)", "setting": "[1]", "value": "substantial increase"},
      {"measurement": "NA, percentage area beneath the curve (%AbC ± S.E.M.)", "setting": "[1]", "value": "+105.4 ± 7.3^a,b %AbC"}
    ]},
    {"molecule": "COc1ccc(NC(=O)N2CCc3cc(F)c(Cl)cc32)cc1N1CCN(C)CC1", "note": "[Example 11 of application EP-1170288, 6-chloro-5-fluoro-N-[4-methoxy-3-(4-methyl-1-piperazinyl)phenyl]-1-indolinecarboxamide]", "values": [
      {"measurement": "Ki", "setting": "5-HT2C receptors", "value": 39.8, "unit": "nM"},
      {"measurement": "ACh, percentage area beneath the curve (%AbC ± S.E.M.)", "setting": "[1]", "value": "+15.1 ± 12.3 %AbC"},
      {"measurement": "DA, percentage area beneath the curve (%AbC ± S.E.M.)", "setting": "[1]", "value": "+19.5 ± 4.9 %AbC"},
      {"measurement": "change in extracellular concentration of ACh (in words)", "setting": "[1]", "value": "no change"},
      {"measurement": "change in extracellular concentration of DA (in words)", "setting": "[1]", "value": "very modest increase"},
      {"measurement": "change in extracellular concentration of NA (in words)", "setting": "[1]", "value": "very modest increase"},
      {"measurement": "NA, percentage area beneath the curve (%AbC ± S.E.M.)", "setting": "[1]", "value": "+39.8 ± 6.7 %AbC"}
    ]}
  ]
}
